Source: paper PMC13303085, “Succinate dehydrogenase loss suppresses pyrimidine biosynthesis via succinate-mediated inhibition of aspartate transcarbamylase” (Nature metabolism, 2026)

Tests used:
[1] = biological target: T1, aspartate transcarbamylase (ATCase) domain of CAD (Homo sapiens, UniProt P27708); assay: colorimetric carbamoyl-aspartate formation assay with purified MBP-ATCase, CP titration at […] aspartate; type: biochemical; parameters: residues 1,915–2,225 of human CAD, N-terminal 6×His-tagged MBP fusion (MBP-ATCase)
T1 sequence (P27708 1915-2225): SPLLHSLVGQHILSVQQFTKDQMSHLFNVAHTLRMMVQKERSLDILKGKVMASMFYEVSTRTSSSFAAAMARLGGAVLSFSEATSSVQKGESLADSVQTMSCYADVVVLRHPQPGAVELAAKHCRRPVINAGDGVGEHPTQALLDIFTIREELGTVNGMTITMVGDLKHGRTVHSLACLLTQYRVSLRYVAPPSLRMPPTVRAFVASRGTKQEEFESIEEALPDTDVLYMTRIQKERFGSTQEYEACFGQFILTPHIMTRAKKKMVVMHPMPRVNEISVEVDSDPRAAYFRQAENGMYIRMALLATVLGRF

[2] = biological target: T1, aspartate transcarbamylase (ATCase) domain of CAD; assay: initial-rate kinetics of purified MBP-ATCase, aspartate titration in excess CP; type: biochemical; parameters: residues 1,915–2,225 of human CAD, N-terminal 6×His-tagged MBP fusion (MBP-ATCase)
[3] = biological target: T1, aspartate transcarbamylase (ATCase) domain of CAD; assay: initial-rate kinetics of purified MBP-ATCase, CP titration in excess aspartate (Michaelis-Menten); type: biochemical; parameters: residues 1,915–2,225 of human CAD, N-terminal 6×His-tagged MBP fusion (MBP-ATCase)
From the text: initial-rate kinetics of purified MBP-ATCase, CP titration in excess aspartate (Michaelis-Menten) on aspartate transcarbamylase (ATCase) domain of CAD | relative initial enzymatic rates of MBP-ATCase in excess aspartate and a titration of CP.

[4] = biological target: T1, aspartate transcarbamylase (ATCase) domain of CAD; assay: biochemical
[5] = biological target: the molecule itself; assay: SEC; affinity-purified MBP-ATCase on Superdex 200 16/600 in 20 mM Tris-HCl pH 7.2, 100 mM NaCl, 2% glycerol, 0.2 mM TCEP; trimer

O=C(O)C[C@H](NC(=O)CP(=O)(O)O)C(=O)O [PALA]
colorimetric carbamoyl-aspartate formation assay with purified MBP-ATCase, CP ti [1]: initial rates were dose-dependently decreased with nanomolar doses of the classical ATCase inhibitor, PALA (N-phosphonacetyl-L-aspartate)

N[C@@H](CC(=O)O)C(=O)O [aspartate]
initial-rate kinetics of purified MBP-ATCase, aspartate titration in excess CP [2]: we measured initial enzymatic rates of MBP-ATCase in excess CP, a titration of aspartate, and three concentrations of succinate

NC(=O)OP(=O)(O)O [carbamoyl phosphate]
initial-rate kinetics of purified MBP-ATCase, CP titration in excess aspartate [3]: relative initial enzymatic rates of MBP-ATCase in excess aspartate and a titration of CP. This showed saturation kinetics

O=C(O)CCC(=O)O [succinate]
IC50 [4]: 1.35 mM

B1: ATCase domain of human CAD fused N-terminally to a 6×His-tagged maltose binding protein (MBP-ATCase) (domain or fragment, UniProt P27708 1915-2225, looked up)
chain: SPLLHSLVGQHILSVQQFTKDQMSHLFNVAHTLRMMVQKERSLDILKGKVMASMFYEVSTRTSSSFAAAMARLGGAVLSFSEATSSVQKGESLADSVQTMSCYADVVVLRHPQPGAVELAAKHCRRPVINAGDGVGEHPTQALLDIFTIREELGTVNGMTITMVGDLKHGRTVHSLACLLTQYRVSLRYVAPPSLRMPPTVRAFVASRGTKQEEFESIEEALPDTDVLYMTRIQKERFGSTQEYEACFGQFILTPHIMTRAKKKMVVMHPMPRVNEISVEVDSDPRAAYFRQAENGMYIRMALLATVLGRF
notes: Order of the construct: 6×His, SSG linker, MBP, two SSG linkers, TEV protease site, GS linker, CAD 1915-2225; in pET-28a(+); also called 6×His-tagged MBP-ATCase; human ATCase; source: E. coli BL21, autoinduction medium, purified (HisPur cobalt resin, SEC on Superdex 200); not shown: His6, N-terminal, kept; MBP, N-terminal, kept
stoichiometry N [5]: 3
